Results reported in patent publication EP4669337B1, “AGENTS USEFUL FOR THE PREVENTION OR TREATMENT OF ALLERGIC & INFLAMMATORY DISORDERS” (ATOPIA THERAPEUTICS SA, priority 2023, dated 2025).

Tested on: engineered human embryonic kidney (HEK-293) TGF-β reporter cells
Assay: HEK-Blue hTGFβ reporter cell assay (Smad-inducible SEAP, optical density at 650 nm)
Format: cell-based
Conditions: 20 µl of a 3µM inhibitor solution in 200 µl total volume, added 1 hour before the test compound; SEQ ID NO:31 at 6.25-150 µg/ml; overnight incubation
Procedure: Polypeptides of the invention have been tested in the cells above in order to determine cell-surface receptors through which they signal and thereby induce immunotolerance. For this purpose, a peptide of the invention of SEQ ID NO:31 was administered to commercial engineered human embryonic kidney (HEK-293) TGF-β reporter cells that induce the production of Smad-inducible secreted embryonic alkaline phosphatase (SEAP) when human TGF-β triggers a signaling cascade leading to the formation of a Smad3/Smad4 complex which can be monitored by optical density at 650 nm as follows.
In a 96-well plate (200 µl total volume), 20 µl of a solution containing 3µM of the inhibitor LY-364947 in medium, or medium alone, are placed in a well, followed by the addition 160 µl of the HEK-Blue hTGFβ cell suspension. After 1 hour incubation, 20 µl of the test compound or the positive control are added to the wells. […] SEAP activity is assayed from the supernatant of HEK-Blue hTGFb cell by reading the optical density at 650 nm using a spectrophotometer after 3 hours incubation at 37°C with Quanti-blue, a SEAP detection reagent.
In this particular case, the formation of the Smad3/Smad4 complex (illustrated by the measured OD650 as shown on Figure 8) was induced by the presence of SEQ ID NO:31 at the following concentrations: 6.25, 12.5, 25, 50, 75, 100, 125, and 150 µg/ml. […]

c1ccc(-c2nn3c(c2-c2ccnc4cc(OCCN5CCOCC5)ccc24)CCC3)nc1 [LY2109761]
Smad3/Smad4 signaling cascade induced by SEQ ID NO:31 (SEAP, OD650): antagonized
